{"source": "patent US20250231185A1", "about": "“Coronavirus T Cell Epitopes, Megapools and Uses Thereof” (La Jolla Institute for Immunology, priority 2021, published 2025)", "origin": "cited, not measured here", "system": "CD8+ T cells", "details": "cited from earlier work", "key": {"[1]": {"details": "CD8RE megapool peptides (non-spike SARS-CoV-2 antigens), dominant epitope Yes/No"}, "[2]": {"details": "T cell subset (CD4 or CD8) recognizing the SARS-CoV-2-derived epitope"}, "[3]": {"details": "T cell type (CD4 or CD8) recognizing the SARS-CoV-2 epitope"}, "[4]": {"details": "SARS-CoV-2-derived CD8 epitopes, dominant = recognized by 3 or more donors/different studies"}, "[5]": {"details": "CD8R (D) megapool epitopes, dominant = recognized by 3 or more donors/different studies"}, "[6]": {"details": "SARS-CoV-2 Ag S, T cell type recognizing the epitope"}}, "note": "Read-outs that look alike come from different tables or passages of the source.", "data": [{"substance": "2906 (NRFLYIIKL) [compound 2906]", "values": [{"measurement": "Dominant", "setting": "[1]", "value": "Yes (more dominant epitopes are defined by being recognized by 3 or more donors/different studies)"}]}, {"substance": "553 (KTFPPTEPKKDKKK) [compound 553]", "values": [{"measurement": "Restriction", "setting": "[2]", "value": "CD8"}]}, {"substance": "1066 (AGFSLWVYK) [compound 1066]", "values": [{"measurement": "Restriction", "setting": "[3]", "value": "CD8"}]}, {"substance": "1092 (CATVHTANKW) [compound 1092]", "values": [{"measurement": "Restriction", "setting": "[3]", "value": "CD8"}]}, {"substance": "2945 (FSKQLQQSM) [compound 2945]", "values": [{"measurement": "Dominant", "setting": "[1]", "value": "Yes (more dominant epitopes are defined by being recognized by 3 or more donors/different studies)"}]}, {"substance": "526 (RRGPEQTQGNF) [compound 526]", "values": [{"measurement": "Restriction", "setting": "[2]", "value": "CD8"}]}, {"substance": "HTTDPSFLGRY [nsp3 818-828]", "values": [{"measurement": "dominance as reported", "setting": "HLA-A*01:01 epitopes overlapping TTDPSFLGRY, Saini et al.", "value": "particularly dominant"}]}, {"substance": "645 (YYTSNPTTFHL) [compound 645]", "values": [{"measurement": "Restriction", "setting": "[2]", "value": "CD8"}]}, {"substance": "528 (QELIRQGTDYKHW) [compound 528]", "values": [{"measurement": "Dominant", "setting": "[4]", "value": "Yes (more dominant epitopes are defined by being recognized by 3 or more donors/different studies)"}, {"measurement": "Restriction", "setting": "[2]", "value": "CD8"}]}, {"substance": "697 (ASRELKVTF) [compound 697]", "values": [{"measurement": "Restriction", "setting": "[2]", "value": "CD8"}]}, {"substance": "503 (YLGTGPEAGL) [compound 503]", "values": [{"measurement": "Restriction", "setting": "[2]", "value": "CD8"}]}, {"substance": "3044 (YYQLYSTQL) [compound 3044]", "values": [{"measurement": "Dominant", "setting": "[1]", "value": "Yes (more dominant epitopes are defined by being recognized by 3 or more donors/different studies)"}]}, {"substance": "1021 (QLYLGGMSYY) [compound 1021]", "values": [{"measurement": "Restriction", "setting": "[3]", "value": "CD8"}]}, {"substance": "1811 (QLRARSVSPK) [compound 1811]", "values": [{"measurement": "Dominant", "setting": "[5]", "value": "Yes (more dominant epitopes are defined by being recognized by 3 or more donors/different studies)"}]}, {"substance": "535 (FAPSASAFF) [compound 535]", "values": [{"measurement": "Restriction", "setting": "[2]", "value": "CD8"}]}, {"substance": "1004 (VYLPYPDPSRI) [compound 1004]", "values": [{"measurement": "Restriction", "setting": "[3]", "value": "CD8"}]}, {"substance": "505 (AGLPYGANK) [compound 505]", "values": [{"measurement": "Restriction", "setting": "[2]", "value": "CD8"}]}, {"substance": "1752 (LLLDDFVEII) [compound 1752]", "values": [{"measurement": "Dominant", "setting": "[5]", "value": "Yes (more dominant epitopes are defined by being recognized by 3 or more donors/different studies)"}]}, {"substance": "3043 (FTSDYYQLY) [compound 3043]", "values": [{"measurement": "Dominant", "setting": "[1]", "value": "Yes (more dominant epitopes are defined by being recognized by 3 or more donors/different studies)"}]}, {"substance": "592 (SELLTPLGI) [compound 592]", "values": [{"measurement": "Restriction", "setting": "[2]", "value": "CD8"}]}, {"substance": "542 (MEVTPSGTWL) [compound 542]", "values": [{"measurement": "Dominant", "setting": "[4]", "value": "Yes (more dominant epitopes are defined by being recognized by 3 or more donors/different studies)"}, {"measurement": "Restriction", "setting": "[2]", "value": "CD8"}]}, {"substance": "1749 (KQFDTYNLW) [compound 1749]", "values": [{"measurement": "Dominant", "setting": "[5]", "value": "Yes (more dominant epitopes are defined by being recognized by 3 or more donors/different studies)"}]}, {"substance": "1099 (NPIQLSSYSL) [compound 1099]", "values": [{"measurement": "Restriction", "setting": "[3]", "value": "CD8"}]}, {"substance": "1693 (VLQLPQGTTL) [compound 1693]", "values": [{"measurement": "Dominant", "setting": "[5]", "value": "Yes (more dominant epitopes are defined by being recognized by 3 or more donors/different studies)"}]}, {"substance": "3010 (SLRPDTRYVL) [compound 3010]", "values": [{"measurement": "Dominant", "setting": "[1]", "value": "Yes (more dominant epitopes are defined by being recognized by 3 or more donors/different studies)"}]}, {"substance": "658 (FEYYHTTDPSF) [compound 658]", "values": [{"measurement": "Restriction", "setting": "[2]", "value": "CD8"}]}, {"substance": "2956 (VVDKYFDCY) [compound 2956]", "values": [{"measurement": "Dominant", "setting": "[1]", "value": "Yes (more dominant epitopes are defined by being recognized by 3 or more donors/different studies)"}]}, {"substance": "1073 (TTLPVNVAF) [compound 1073]", "values": [{"measurement": "Restriction", "setting": "[3]", "value": "CD8"}]}, {"substance": "1698 (KPRQKRTAT) [compound 1698]", "values": [{"measurement": "Dominant", "setting": "[5]", "value": "Yes (more dominant epitopes are defined by being recognized by 3 or more donors/different studies)"}]}, {"substance": "614 (RTNVYLAVF) [compound 614]", "values": [{"measurement": "Restriction", "setting": "[2]", "value": "CD8"}]}, {"substance": "586 (QGYKSVNITF) [compound 586]", "values": [{"measurement": "Restriction", "setting": "[2]", "value": "CD8"}]}, {"substance": "1804 (ALSKGVHFV) [compound 1804]", "values": [{"measurement": "Dominant", "setting": "[5]", "value": "Yes (more dominant epitopes are defined by being recognized by 3 or more donors/different studies)"}]}, {"substance": "619 (KIAEIPKEEV) [compound 619]", "values": [{"measurement": "Restriction", "setting": "[2]", "value": "CD8"}]}, {"substance": "1098 (WRNTNPIQL) [compound 1098]", "values": [{"measurement": "Restriction", "setting": "[3]", "value": "CD8"}]}, {"substance": "557 (FSKQLQQSM) [compound 557]", "values": [{"measurement": "Dominant", "setting": "[4]", "value": "Yes (more dominant epitopes are defined by being recognized by 3 or more donors/different studies)"}, {"measurement": "Restriction", "setting": "[2]", "value": "CD8"}]}, {"substance": "990 (TSSGDATTAY) [compound 990]", "values": [{"measurement": "Restriction", "setting": "[3]", "value": "CD8"}]}, {"substance": "1356 (AYSNNSIAI) [compound 1356]", "values": [{"measurement": "Restriction", "setting": "[6]", "value": "CD8"}]}, {"substance": "1761 (FGDDTVIEV) [compound 1761]", "values": [{"measurement": "Dominant", "setting": "[5]", "value": "Yes (more dominant epitopes are defined by being recognized by 3 or more donors/different studies)"}]}, {"substance": "1718 (FVDGVPFVV) [compound 1718]", "values": [{"measurement": "Dominant", "setting": "[5]", "value": "Yes (more dominant epitopes are defined by being recognized by 3 or more donors/different studies)"}]}, {"substance": "664 (YMSALNHTK) [compound 664]", "values": [{"measurement": "Restriction", "setting": "[2]", "value": "CD8"}]}, {"substance": "1071 (SLENVAFNV) [compound 1071]", "values": [{"measurement": "Restriction", "setting": "[3]", "value": "CD8"}]}, {"substance": "1378 (SFIEDLLF) [compound 1378]", "values": [{"measurement": "Restriction", "setting": "[6]", "value": "CD8"}]}, {"substance": "2988 (MLWCKDGHV) [compound 2988]", "values": [{"measurement": "Dominant", "setting": "[1]", "value": "Yes (more dominant epitopes are defined by being recognized by 3 or more donors/different studies)"}]}, {"substance": "670 (YLATALLTL) [compound 670]", "values": [{"measurement": "Dominant", "setting": "[4]", "value": "Yes (more dominant epitopes are defined by being recognized by 3 or more donors/different studies)"}, {"measurement": "Restriction", "setting": "[2]", "value": "CD8"}]}, {"substance": "1770 (YIFFASFYY) [compound 1770]", "values": [{"measurement": "Dominant", "setting": "[5]", "value": "Yes (more dominant epitopes are defined by being recognized by 3 or more donors/different studies)"}]}, {"substance": "1077 (VVQQLPETY) [compound 1077]", "values": [{"measurement": "Restriction", "setting": "[3]", "value": "CD8"}]}, {"substance": "2911 (SELVIGAVIL) [compound 2911]", "values": [{"measurement": "Dominant", "setting": "[1]", "value": "Yes (more dominant epitopes are defined by being recognized by 3 or more donors/different studies)"}]}, {"substance": "620 (EVKPFITESK) [compound 620]", "values": [{"measurement": "Restriction", "setting": "[2]", "value": "CD8"}]}, {"substance": "1738 (VYIGDPAQL) [compound 1738]", "values": [{"measurement": "Dominant", "setting": "[5]", "value": "Yes (more dominant epitopes are defined by being recognized by 3 or more donors/different studies)"}]}, {"substance": "2957 (RLYYDSMSY) [compound 2957]", "values": [{"measurement": "Dominant", "setting": "[1]", "value": "Yes (more dominant epitopes are defined by being recognized by 3 or more donors/different studies)"}]}, {"substance": "519 (LLLLDRLNQL) [compound 519]", "values": [{"measurement": "Dominant", "setting": "[4]", "value": "Yes (more dominant epitopes are defined by being recognized by 3 or more donors/different studies)"}, {"measurement": "Restriction", "setting": "[2]", "value": "CD8"}]}, {"substance": "544 (VTPSGTWLTY) [compound 544]", "values": [{"measurement": "Restriction", "setting": "[2]", "value": "CD8"}]}, {"substance": "1722 (RLYYDSMSY) [compound 1722]", "values": [{"measurement": "Dominant", "setting": "[5]", "value": "Yes (more dominant epitopes are defined by being recognized by 3 or more donors/different studies)"}]}, {"substance": "975 (YAISAKNRAR) [compound 975]", "values": [{"measurement": "Restriction", "setting": "[3]", "value": "CD8"}]}, {"substance": "1812 (RARSVSPKL) [compound 1812]", "values": [{"measurement": "Dominant", "setting": "[5]", "value": "Yes (more dominant epitopes are defined by being recognized by 3 or more donors/different studies)"}]}, {"substance": "1406 (RLDKVEAEVQI) [compound 1406]", "values": [{"measurement": "Restriction", "setting": "[6]", "value": "CD8"}]}, {"substance": "1010 (QEYADVFHLY) [compound 1010]", "values": [{"measurement": "Restriction", "setting": "[3]", "value": "CD8"}]}, {"substance": "686 (YTTTIKPVTY) [compound 686]", "values": [{"measurement": "Restriction", "setting": "[2]", "value": "CD8"}]}, {"substance": "538 (ASAFFGMSR) [compound 538]", "values": [{"measurement": "Dominant", "setting": "[4]", "value": "Yes (more dominant epitopes are defined by being recognized by 3 or more donors/different studies)"}, {"measurement": "Restriction", "setting": "[2]", "value": "CD8"}]}, {"substance": "1074 (TICAPLTVF) [compound 1074]", "values": [{"measurement": "Restriction", "setting": "[3]", "value": "CD8"}]}, {"substance": "1404 (SVLNDILSRL) [compound 1404]", "values": [{"measurement": "Restriction", "setting": "[6]", "value": "CD8"}]}, {"substance": "641 (TISLAGSYK) [compound 641]", "values": [{"measurement": "Restriction", "setting": "[2]", "value": "CD8"}]}, {"substance": "699 (VVAIDYKHY) [compound 699]", "values": [{"measurement": "Restriction", "setting": "[2]", "value": "CD8"}]}, {"substance": "2944 (LPAADLDDF) [compound 2944]", "values": [{"measurement": "Dominant", "setting": "[1]", "value": "Yes (more dominant epitopes are defined by being recognized by 3 or more donors/different studies)"}]}, {"substance": "1364 (KTSVDCTMYI) [compound 1364]", "values": [{"measurement": "Restriction", "setting": "[6]", "value": "CD8"}]}]}
